Data: ChEMBL document CHEMBL5380863 (J Med Chem, 2023)

Experiments:
K562 = assay: cells; format: functional, cell-based; details: Homo sapiens, K562, 72 h
HL-60 = assay: cells; format: functional, cell-based; details: Homo sapiens, HL-60, 72 h
HEL = assay: cells; format: functional, cell-based; details: Homo sapiens, 72 h
MCF7 = assay: cells; format: functional, cell-based; details: Homo sapiens, MCF7, 72 h
HeLa = assay: cells; format: functional, cell-based; details: Homo sapiens, 72 h
A549 = assay: cells; format: functional, cell-based; details: Homo sapiens, A549, 72 h
PC-3 = assay: cells; format: functional, cell-based; details: Homo sapiens, PC-3, 72 h
[1] = target: T1, Tyrosine-protein kinase JAK2 (Homo sapiens, UniProt O60674)
Histone deacetylase = format: cell-based, Homo sapiens; details: hela
Histone deacetylase 1 = Histone deacetylase 1 (Homo sapiens, UniProt Q13547); format: cell-based, HeLa
Histone deacetylase 2 = Histone deacetylase 2 (Homo sapiens, UniProt Q92769)
Histone deacetylase 3 = Histone deacetylase 3 (Homo sapiens, UniProt O15379)
Histone deacetylase 4 = Histone deacetylase 4 (Homo sapiens, UniProt P56524)
Histone deacetylase 5 = Histone deacetylase 5 (Homo sapiens, UniProt Q9UQL6)
[2] = target: Protein deacetylase HDAC6 (Homo sapiens, UniProt Q9UBN7)
Histone deacetylase 7 = Histone deacetylase 7 (Homo sapiens, UniProt Q8WUI4)
Histone deacetylase 8 = Histone deacetylase 8 (Homo sapiens, UniProt Q9BY41)
Histone deacetylase 9 = Histone deacetylase 9 (Homo sapiens, UniProt Q9UKV0)
[3] = target: Polyamine deacetylase HDAC10 (Homo sapiens, UniProt Q969S8)
Histone deacetylase 11 = Histone deacetylase 11 (Homo sapiens, UniProt Q96DB2)
[4] = target: Non-receptor tyrosine-protein kinase TYK2 (Homo sapiens, UniProt P29597)
[5] = target: T2, Tyrosine-protein kinase JAK1 (Homo sapiens, UniProt P23458)
[6] = target: Tyrosine-protein kinase JAK3 (Homo sapiens, UniProt P52333)
[7] = rat, in vivo, po, 15 mg/kg, 24 h
[8] = target: T1, Tyrosine-protein kinase JAK2; details: dose 500.0 nM
[9] = target: T2, Tyrosine-protein kinase JAK1; details: dose 500.0 nM
[10] = target: Activated CDC42 kinase 1 (Homo sapiens) (UniProt Q07912); details: dose 500.0 nM
[11] = target: Tyrosine-protein kinase Fyn (Homo sapiens) (UniProt P06241); details: dose 500.0 nM
[12] = target: Muscle, skeletal receptor tyrosine-protein kinase (Homo sapiens) (UniProt O15146); details: dose 500.0 nM
in vivo [13] = details: Sprague-Dawley, rat, po, 15 mg/kg
in vivo [14] = details: Sprague-Dawley, rat, iv, 3 mg/kg
in vivo [15] = details: Sprague-Dawley, rat, po, 15 mg/kg; remark: listed apart in the source
in vivo [16] = details: Sprague-Dawley, rat, po, 15 mg/kg; remark: listed apart in the source
in vivo [17] = details: Sprague-Dawley, rat, po, 15 mg/kg; remark: listed apart in the source
in vivo [18] = details: Sprague-Dawley, rat, iv, 3 mg/kg; remark: listed apart in the source
in vivo [19] = details: Sprague-Dawley, rat, po, 15 mg/kg; remark: listed apart in the source
in vivo [20] = details: Sprague-Dawley, rat, iv, 3 mg/kg; remark: listed apart in the source
in vivo [21] = details: Sprague-Dawley, rat, po, 15 mg/kg; remark: listed apart in the source
in vivo [22] = details: Sprague-Dawley, rat, po, 15 mg/kg; remark: listed apart in the source
in vivo [23] = details: Sprague-Dawley, rat, iv, 3 mg/kg; remark: listed apart in the source
in vivo [24] = details: Sprague-Dawley, rat, iv, 3 mg/kg; remark: listed apart in the source
in vitro [25] = details: Sprague-Dawley, rat, plasma
in vitro [26] = details: Sprague-Dawley, rat, plasma; remark: listed apart in the source

T2 sequence (P23458 whole entry): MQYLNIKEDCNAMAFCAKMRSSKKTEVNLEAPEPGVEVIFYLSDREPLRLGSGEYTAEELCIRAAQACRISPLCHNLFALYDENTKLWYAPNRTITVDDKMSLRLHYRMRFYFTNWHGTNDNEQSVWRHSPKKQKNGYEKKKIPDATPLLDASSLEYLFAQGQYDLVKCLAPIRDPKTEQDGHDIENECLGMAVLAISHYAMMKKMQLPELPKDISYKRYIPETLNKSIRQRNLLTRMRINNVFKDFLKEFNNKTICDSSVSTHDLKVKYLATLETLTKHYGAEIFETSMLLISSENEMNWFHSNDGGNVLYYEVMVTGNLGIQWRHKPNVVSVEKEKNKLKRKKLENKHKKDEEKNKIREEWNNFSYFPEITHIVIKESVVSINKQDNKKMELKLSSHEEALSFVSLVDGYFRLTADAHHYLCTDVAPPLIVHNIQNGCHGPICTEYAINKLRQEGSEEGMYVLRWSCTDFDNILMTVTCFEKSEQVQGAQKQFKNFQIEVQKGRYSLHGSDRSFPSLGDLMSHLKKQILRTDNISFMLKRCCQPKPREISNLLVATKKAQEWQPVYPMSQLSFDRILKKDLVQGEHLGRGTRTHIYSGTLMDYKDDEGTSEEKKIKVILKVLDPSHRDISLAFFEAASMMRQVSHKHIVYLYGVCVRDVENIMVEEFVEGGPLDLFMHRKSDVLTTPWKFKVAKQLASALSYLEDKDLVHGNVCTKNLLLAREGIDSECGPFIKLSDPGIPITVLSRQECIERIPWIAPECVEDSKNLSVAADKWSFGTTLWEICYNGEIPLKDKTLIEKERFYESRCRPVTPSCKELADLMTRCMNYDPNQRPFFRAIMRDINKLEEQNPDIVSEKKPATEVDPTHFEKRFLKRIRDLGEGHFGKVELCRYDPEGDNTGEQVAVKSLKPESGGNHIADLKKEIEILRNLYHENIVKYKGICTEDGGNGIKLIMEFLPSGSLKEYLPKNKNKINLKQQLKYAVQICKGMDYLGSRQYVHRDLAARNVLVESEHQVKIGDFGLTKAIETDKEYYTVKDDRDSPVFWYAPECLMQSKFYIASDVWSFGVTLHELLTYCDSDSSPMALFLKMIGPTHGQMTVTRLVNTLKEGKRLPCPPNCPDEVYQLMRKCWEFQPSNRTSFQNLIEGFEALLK
T1 sequence (O60674 whole entry): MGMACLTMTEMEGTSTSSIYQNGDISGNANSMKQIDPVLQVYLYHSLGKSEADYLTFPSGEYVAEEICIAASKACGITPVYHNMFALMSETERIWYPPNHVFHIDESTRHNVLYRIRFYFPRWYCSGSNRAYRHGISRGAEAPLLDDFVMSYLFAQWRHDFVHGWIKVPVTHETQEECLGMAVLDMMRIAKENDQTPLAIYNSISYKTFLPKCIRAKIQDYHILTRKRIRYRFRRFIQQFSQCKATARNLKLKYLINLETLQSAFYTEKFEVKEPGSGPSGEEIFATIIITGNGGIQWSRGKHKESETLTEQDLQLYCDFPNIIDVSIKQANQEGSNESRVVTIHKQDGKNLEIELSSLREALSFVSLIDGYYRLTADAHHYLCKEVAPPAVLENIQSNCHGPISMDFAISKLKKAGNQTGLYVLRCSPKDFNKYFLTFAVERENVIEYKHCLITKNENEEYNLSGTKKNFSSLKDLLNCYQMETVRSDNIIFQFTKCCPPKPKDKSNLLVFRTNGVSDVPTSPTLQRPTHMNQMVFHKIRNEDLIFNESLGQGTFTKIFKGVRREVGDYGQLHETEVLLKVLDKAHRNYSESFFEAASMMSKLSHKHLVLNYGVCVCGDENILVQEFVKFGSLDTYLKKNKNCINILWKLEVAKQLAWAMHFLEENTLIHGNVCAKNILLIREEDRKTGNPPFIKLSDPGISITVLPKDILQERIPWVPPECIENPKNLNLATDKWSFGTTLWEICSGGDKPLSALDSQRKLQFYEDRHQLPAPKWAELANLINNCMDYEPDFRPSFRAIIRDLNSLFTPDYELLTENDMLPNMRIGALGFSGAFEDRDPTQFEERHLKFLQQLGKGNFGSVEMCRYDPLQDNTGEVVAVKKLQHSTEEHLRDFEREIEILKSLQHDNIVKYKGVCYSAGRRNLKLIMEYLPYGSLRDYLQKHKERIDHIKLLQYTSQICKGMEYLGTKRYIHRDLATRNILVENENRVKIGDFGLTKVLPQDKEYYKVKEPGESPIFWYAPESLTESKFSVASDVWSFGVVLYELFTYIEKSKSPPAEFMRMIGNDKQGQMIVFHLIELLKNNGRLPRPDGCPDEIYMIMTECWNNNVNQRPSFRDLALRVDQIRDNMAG
Histone deacetylase 2, sequence (Q92769 whole entry): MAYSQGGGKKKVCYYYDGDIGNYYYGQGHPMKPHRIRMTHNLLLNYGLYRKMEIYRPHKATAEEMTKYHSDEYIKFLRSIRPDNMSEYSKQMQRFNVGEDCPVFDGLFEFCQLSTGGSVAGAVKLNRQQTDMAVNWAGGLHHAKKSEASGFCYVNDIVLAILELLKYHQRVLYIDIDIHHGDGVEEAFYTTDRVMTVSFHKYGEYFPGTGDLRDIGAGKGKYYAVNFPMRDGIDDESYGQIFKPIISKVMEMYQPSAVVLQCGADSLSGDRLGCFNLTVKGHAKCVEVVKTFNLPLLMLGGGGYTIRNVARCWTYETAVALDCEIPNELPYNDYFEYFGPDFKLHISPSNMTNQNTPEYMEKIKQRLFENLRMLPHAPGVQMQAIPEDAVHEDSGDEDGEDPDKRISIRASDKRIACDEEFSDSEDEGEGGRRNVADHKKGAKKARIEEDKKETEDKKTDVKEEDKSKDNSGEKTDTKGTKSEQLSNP
Tyrosine-protein kinase Fyn (Homo sapiens), sequence (P06241 2-537 limits assumed): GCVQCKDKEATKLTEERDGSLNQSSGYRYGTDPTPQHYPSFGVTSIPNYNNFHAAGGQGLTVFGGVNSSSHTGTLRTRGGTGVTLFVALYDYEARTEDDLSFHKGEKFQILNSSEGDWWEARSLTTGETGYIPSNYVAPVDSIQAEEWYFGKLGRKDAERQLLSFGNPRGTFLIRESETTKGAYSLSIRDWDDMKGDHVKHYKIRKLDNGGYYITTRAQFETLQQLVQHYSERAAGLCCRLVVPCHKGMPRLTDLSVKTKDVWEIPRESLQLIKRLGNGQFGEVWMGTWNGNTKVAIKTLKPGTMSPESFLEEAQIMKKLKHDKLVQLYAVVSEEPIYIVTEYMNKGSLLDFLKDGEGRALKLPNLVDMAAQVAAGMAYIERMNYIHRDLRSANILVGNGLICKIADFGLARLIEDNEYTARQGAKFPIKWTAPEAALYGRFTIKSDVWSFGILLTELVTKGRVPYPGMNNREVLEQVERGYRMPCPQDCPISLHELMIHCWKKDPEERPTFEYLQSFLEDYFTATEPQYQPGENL
Histone deacetylase 4, sequence (P56524 whole entry): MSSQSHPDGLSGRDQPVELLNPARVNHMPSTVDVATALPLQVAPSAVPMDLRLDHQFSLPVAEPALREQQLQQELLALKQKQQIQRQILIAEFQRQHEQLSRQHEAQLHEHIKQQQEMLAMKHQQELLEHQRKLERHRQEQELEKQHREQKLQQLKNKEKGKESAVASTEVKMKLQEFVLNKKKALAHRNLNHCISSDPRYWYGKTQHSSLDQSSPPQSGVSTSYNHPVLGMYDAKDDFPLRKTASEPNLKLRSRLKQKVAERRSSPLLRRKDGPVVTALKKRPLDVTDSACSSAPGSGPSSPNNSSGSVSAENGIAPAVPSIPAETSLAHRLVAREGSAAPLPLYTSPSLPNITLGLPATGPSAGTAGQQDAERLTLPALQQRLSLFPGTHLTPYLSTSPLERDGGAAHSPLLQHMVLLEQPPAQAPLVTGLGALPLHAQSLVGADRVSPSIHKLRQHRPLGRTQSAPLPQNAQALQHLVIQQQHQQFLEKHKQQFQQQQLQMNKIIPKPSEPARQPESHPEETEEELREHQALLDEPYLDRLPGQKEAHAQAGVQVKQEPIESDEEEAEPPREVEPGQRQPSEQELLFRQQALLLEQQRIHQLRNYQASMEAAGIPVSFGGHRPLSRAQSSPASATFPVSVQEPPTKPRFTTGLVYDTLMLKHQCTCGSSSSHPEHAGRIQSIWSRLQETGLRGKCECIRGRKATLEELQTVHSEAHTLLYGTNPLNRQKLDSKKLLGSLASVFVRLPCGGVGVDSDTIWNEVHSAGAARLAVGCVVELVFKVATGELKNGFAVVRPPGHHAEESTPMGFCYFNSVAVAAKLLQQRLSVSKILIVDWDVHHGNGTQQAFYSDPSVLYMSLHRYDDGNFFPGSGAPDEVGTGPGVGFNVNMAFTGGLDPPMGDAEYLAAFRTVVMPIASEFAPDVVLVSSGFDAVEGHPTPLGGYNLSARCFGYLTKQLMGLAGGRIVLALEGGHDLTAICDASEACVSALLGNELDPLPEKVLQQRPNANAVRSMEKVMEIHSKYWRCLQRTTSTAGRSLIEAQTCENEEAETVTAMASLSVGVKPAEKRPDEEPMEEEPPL
Polyamine deacetylase HDAC10, sequence (Q969S8 whole entry): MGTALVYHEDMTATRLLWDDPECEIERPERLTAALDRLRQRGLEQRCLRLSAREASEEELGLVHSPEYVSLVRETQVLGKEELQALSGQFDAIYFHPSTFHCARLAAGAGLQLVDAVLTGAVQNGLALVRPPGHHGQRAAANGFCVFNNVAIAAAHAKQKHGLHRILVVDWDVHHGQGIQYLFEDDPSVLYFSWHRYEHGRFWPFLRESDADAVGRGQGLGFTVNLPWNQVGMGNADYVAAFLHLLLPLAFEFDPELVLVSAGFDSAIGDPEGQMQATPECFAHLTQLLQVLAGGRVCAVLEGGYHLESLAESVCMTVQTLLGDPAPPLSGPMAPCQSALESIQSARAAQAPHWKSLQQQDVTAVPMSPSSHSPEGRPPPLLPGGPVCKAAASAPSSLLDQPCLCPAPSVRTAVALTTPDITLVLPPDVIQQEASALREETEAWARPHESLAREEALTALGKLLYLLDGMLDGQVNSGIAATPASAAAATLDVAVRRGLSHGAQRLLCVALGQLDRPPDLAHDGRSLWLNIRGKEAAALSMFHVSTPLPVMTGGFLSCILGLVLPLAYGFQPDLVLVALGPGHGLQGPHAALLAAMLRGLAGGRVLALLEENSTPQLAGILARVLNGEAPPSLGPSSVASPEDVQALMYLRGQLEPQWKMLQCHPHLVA

Cc1cnc(Nc2ccc(OCCCCCC(=O)NO)cc2)nc1Nc1cccc(S(=O)(=O)NC(C)(C)C)c1
IC50 (K562): 4.22 µM | IC50 (HL-60): 2.58 µM | IC50 (HEL): 2.52 µM | IC50 (MCF7): 3.22 µM | IC50 (HeLa): 3.96 µM | IC50 (A549): 2.33 µM | IC50 (PC-3): 2.76 µM

Cc1cnc(Nc2ccc(OCC(=O)NO)cc2)nc1Nc1cccc(S(=O)(=O)NC(C)(C)C)c1
IC50 [1]: 0.00433 µM

COc1cc(Nc2ncc(C)c(Nc3cccc(S(=O)(=O)NC(C)(C)C)c3)n2)ccc1OCCCCCCC(=O)NO
IC50 (K562): 5.49 µM | IC50 (HL-60): 4.41 µM | IC50 (HEL): 1.65 µM | IC50 (MCF7): 4.68 µM | IC50 (HeLa): 7.27 µM | IC50 (A549): 1.49 µM | IC50 (PC-3): 3.67 µM

Cc1cnc(Nc2ccc(OCCCCCCC(=O)NO)cc2)nc1Nc1cccc(S(=O)(=O)NC(C)(C)C)c1
IC50 (Histone deacetylase): 0.00017 µM | IC50 (Histone deacetylase 1): 0.00034 µM | IC50 (K562): 1.87 µM | IC50 (HL-60): 2.58 µM | IC50 (HEL): 0.33 µM | IC50 (MCF7): 1.83 µM | IC50 (HeLa): 2.88 µM | IC50 (A549): 0.73 µM | IC50 (PC-3): 2.52 µM | IC50 (Histone deacetylase 2): 0.303 µM | IC50 (Histone deacetylase 3): 0.0587 µM | IC50 (Histone deacetylase 4): > 10 µM | IC50 (Histone deacetylase 5): > 10 µM | IC50 [2]: 0.00444 µM | IC50 (Histone deacetylase 7): > 10 µM | IC50 (Histone deacetylase 8): > 10 µM | IC50 (Histone deacetylase 9): > 10 µM | IC50 [3]: 0.116 µM | IC50 (Histone deacetylase 11): 0.724 µM | IC50 [4]: 0.414 µM | IC50 [5]: 0.0271 µM | IC50 [6]: 0.595 µM | Vd [7]: 13.708 L/kg | inhibition [8]: > 95% | inhibition [9]: 80% | inhibition [10]: 70% | inhibition [11]: > 95% | inhibition [12]: 70% | half-life at 24 h (in vivo [13]): 2.08 h | half-life at 24 h (in vivo [14]): 7.68 min | Tmax at 24 h (in vivo [15]): 2.91 h | Cmax at 24 h (in vivo [16]): 93.3 ng/mL | CL/F at 24 h (in vivo [17]): 76 mL/min/kg | clearance at 24 h (in vivo [18]): 76.2 mL/min/kg | AUC(0-t) at 24 h (in vivo [19]): 745 ng·h/mL | AUC(0-t) at 24 h (in vivo [20]): 656 ng·h/mL | bioavailability at 24 h (in vivo [21]): 22.7% | MRT at 24 h (in vivo [22]): 6.02 h | Vd at 24 h (in vivo [23]): 0.845 L/kg | MRT at 24 h (in vivo [24]): 0.185 h | half-life at 22 h (in vitro [25]): 11.1 h | AUC(0-t) at 22 h (in vitro [26]): 217000 ng·h/mL

Cc1cnc(Nc2ccc(OCCCCCCC(=O)NO)c(C(F)(F)F)c2)nc1Nc1cccc(S(=O)(=O)NC(C)(C)C)c1
IC50 (K562): 5.9 µM | IC50 (HL-60): 11.1 µM | IC50 (HEL): 1.08 µM | IC50 (MCF7): 8.72 µM | IC50 (HeLa): 7.48 µM | IC50 (A549): 2.24 µM | IC50 (PC-3): 4.87 µM

Cc1cnc(Nc2ccc(OCCCCCC(=O)NO)c(Cl)c2)nc1Nc1cccc(S(=O)(=O)NC(C)(C)C)c1
IC50 (K562): 4.37 µM | IC50 (HL-60): 6.7 µM | IC50 (HEL): 1.27 µM | IC50 (MCF7): 4.84 µM | IC50 (HeLa): 7.23 µM | IC50 (A549): 2.03 µM | IC50 (PC-3): 6.29 µM

Cc1cnc(Nc2ccc(OCCCCCCC(=O)NO)c(Br)c2)nc1Nc1cccc(S(=O)(=O)NC(C)(C)C)c1
IC50 (K562): 2.07 µM | IC50 (HL-60): 12 µM | IC50 (HEL): 0.73 µM | IC50 (MCF7): 6.95 µM | IC50 (HeLa): 11.9 µM | IC50 (A549): 2.16 µM | IC50 (PC-3): 3.87 µM

Cc1cc(Nc2ncc(C)c(Nc3cccc(S(=O)(=O)NC(C)(C)C)c3)n2)ccc1OCCCCCCC(=O)NO
IC50 (K562): 8.85 µM | IC50 (HL-60): 4.91 µM | IC50 (HEL): 1.73 µM | IC50 (MCF7): 8.93 µM | IC50 (HeLa): > 50 µM | IC50 (A549): 3.08 µM | IC50 (PC-3): 4.92 µM

Cc1cnc(Nc2ccc(OCCCCCCC(=O)NO)c(F)c2)nc1Nc1cccc(S(=O)(=O)NC(C)(C)C)c1
IC50 (Histone deacetylase): 0.0002 µM | IC50 (Histone deacetylase 1): 0.00043 µM | IC50 (K562): 1.22 µM | IC50 (HL-60): 3.37 µM | IC50 (HEL): 0.24 µM | IC50 (MCF7): 1.98 µM | IC50 (HeLa): 3.25 µM | IC50 (A549): 1.27 µM | IC50 (PC-3): 3.04 µM | IC50 (Histone deacetylase 2): 0.299 µM | IC50 (Histone deacetylase 3): 0.0739 µM | IC50 (Histone deacetylase 4): > 10 µM | IC50 (Histone deacetylase 5): > 10 µM | IC50 [2]: 0.00698 µM | IC50 (Histone deacetylase 7): > 10 µM | IC50 (Histone deacetylase 8): > 10 µM | IC50 (Histone deacetylase 9): > 10 µM | IC50 [3]: 0.127 µM | IC50 (Histone deacetylase 11): 0.931 µM | IC50 [4]: 0.78 µM | IC50 [5]: 0.041 µM | IC50 [6]: 0.954 µM | Vd [7]: 15.411 L/kg | inhibition [9]: 80% | inhibition [10]: 70% | inhibition [11]: 80% | inhibition [12]: 80% | half-life at 24 h (in vivo [13]): 1.81 h | half-life at 24 h (in vivo [14]): 6.72 min | Tmax at 24 h (in vivo [15]): 2.55 h | Cmax at 24 h (in vivo [16]): 79.1 ng/mL | CL/F at 24 h (in vivo [17]): 98.3 mL/min/kg | clearance at 24 h (in vivo [18]): 98.3 mL/min/kg | AUC(0-t) at 24 h (in vivo [19]): 549 ng·h/mL | AUC(0-t) at 24 h (in vivo [20]): 508 ng·h/mL | bioavailability at 24 h (in vivo [21]): 21.6% | MRT at 24 h (in vivo [22]): 5.11 h | Vd at 24 h (in vivo [23]): 0.951 L/kg | MRT at 24 h (in vivo [24]): 0.161 h | half-life at 22 h (in vitro [25]): 8.49 h | AUC(0-t) at 22 h (in vitro [26]): 169000 ng·h/mL

Cc1cnc(Nc2ccc(OCCCCCC(=O)NO)c(C(F)(F)F)c2)nc1Nc1cccc(S(=O)(=O)NC(C)(C)C)c1
IC50 (K562): 3.45 µM | IC50 (HL-60): 6.85 µM | IC50 (HEL): 2.44 µM | IC50 (MCF7): 2.93 µM | IC50 (HeLa): 5.1 µM | IC50 (A549): 2.91 µM | IC50 (PC-3): 2.87 µM

Cc1cnc(Nc2ccc(OCCCC(=O)NO)cc2)nc1Nc1cccc(S(=O)(=O)NC(C)(C)C)c1
IC50 [1]: 0.0123 µM

Cc1cnc(Nc2ccc(OCCCCCCC(=O)NO)c(Cl)c2)nc1Nc1cccc(S(=O)(=O)NC(C)(C)C)c1
IC50 (K562): 4.7 µM | IC50 (HL-60): 7.13 µM | IC50 (HEL): 0.81 µM | IC50 (MCF7): 6.06 µM | IC50 (HeLa): 11.5 µM | IC50 (A549): 1.43 µM | IC50 (PC-3): 4.06 µM

Cc1cnc(Nc2ccc(OCCCCCCCC(=O)NO)cc2)nc1Nc1cccc(S(=O)(=O)NC(C)(C)C)c1
IC50 (K562): 7.16 µM | IC50 (HL-60): 6.5 µM | IC50 (HEL): 1.66 µM | IC50 (MCF7): 9.06 µM | IC50 (HeLa): 10.9 µM | IC50 (A549): 2.95 µM | IC50 (PC-3): 4.94 µM
